US20110160279A1, “METHODS FOR TREATMENT AND PREVENTION OF OTOTOXICITY BY siRNA” (BOARD OF TRUSTEES OF SOUTHERN ILLINOIS UNIVERSITY, priority 2007, published 2011)

What was measured:
TRPV1 mRNA = assay: Real time RT-PCR of TRPV1 mRNA in rat cochlea; assay type: in vivo
Description: (§1) Animal procedures and sample collection: Male Wistar rats were used for this study. Pre-ABR's were performed 2-3 days before round window application of siTRPV1 or PBS. […] The cochleas were dissected and used for the preparation of total RNA or total protein extracts, or perfused with 2.5% glutaraldehyde for morphological studies by Scanning Electron Microscopy (SEM's) or 4% paraformaldehyde for immunocytochemistry.
(§2) RNA was isolated by adding 1 ml TR1 reagent to 100 mg of cochlear or cortical tissue or 0.5 ml TR1 reagent (Sigma, St. Louis, Mo.) per well of each six well plate, according to the manufacturer's instructions.
(§3) Real time reverse transcriptase polymerase chain reaction (RT-PCR): One microgram of total RNA was converted to cDNA using iScript cDNA Synthesis Kit (Bio-Rad, Hercules, Calif.), and qRTPCR was performed as described by (Mukherjea et al, 2006). Gene specific primer pairs were used for the various reactions and mRNA expression levels were normalized to the levels of GAPDH house keeping gene.
(§4) The rodent set of primers and siRNA were based on the homologous sequences in the rat and mouse cDNA sequences. The primers were purchased from Sigma Genosys (St. Louis, Mo.). Purified siRNA duplexes were purchased from Qiagen (Valencia, Calif.).

NOX3 mRNA = assay: Real time RT-PCR of NOX3 mRNA in rat cochlea; assay type: in vivo
Description: as §1, §2, §3, §4

TRPV1 = assay type: cell-based, mouse; conditions: pretreatment with 100 μM AEBSF or 10 μM DPI before cisplatin 2.5 μM
Description: Immortalized organ of Corti cells derived from the mouse, UB/OC-1 cells, were obtained from Dr. Matthew Holley (Institute of Molecular Physiology, Addison Building, Western Bank, Sheffield, UK) and cultured in RPMI 1640 supplemented with 10% Fetalclone II (Hyclone, Logan, Utah) serum and penicillin-streptomycin. Cultures were grown in a 33° C. incubator in 10% CO2.
To further study the role of ROS generated via cochlear NADPH oxidases in the induction of TRPV1 in the cochlea, in vitro experiments were performed using the organ of Corti transformed hair cell line, UB/OC1 (Rivolta et al., Proc. R. Sco. Lond., 265, 1595-1603, 1998). […] Immunolabeling was quantitated by fluorescence imaging using a confocal microscope. […] The immunofluorescence in these groups was reduced by 60 and 70%, respectively (FIG. 2B). […] The increases in expression of these genes were inhibited by DPI (10 μM), indicative of a role or NADPH oxidase activity in the induction of these subunits (FIG. 2G).

UB-OC1 cells [1] = assay: Cisplatin-induced ROS generation by DCF2DA fluorescence in UB-OC1 cells; assay type: cell-based, mouse; conditions: pretreated with AEBSF 100 μM
UB-OC1 cells [2] = assay: Cell viability and morphology of UB-OC1 cultures; assay type: cell-based, mouse; conditions: 100 μM AEBSF or 10 μM DPI
p53 = p53 protein expression in UB/OC-1 cells; assay type: cell-based, mouse; conditions: pretreatment (capsazepine 10 μM; BAPTA-AM 30 min) before cisplatin
Description: (§5) The increases in these proteins were attenuated by capsazepine (10 μM), implicating TRPV1 in this process.

Bax = Bax protein expression in UB/OC-1 cells; assay type: cell-based, mouse; conditions: pretreatment (capsazepine 10 μM; BAPTA-AM 30 min) before cisplatin
Description: as §5

Compound: O=C(O)CCCC[C@@H]1CCSS1 (racemic) [lipoic acid]
- effect on basal expression of TRPV1 (TRPV1 mRNA; rat cochlea, lipoic acid alone, not statistically significant): tendency to reduce basal expression of TRPV1
- effect on cisplatin-induced TRPV1 expression in vivo (TRPV1 mRNA; rats pretreated with lipoic acid before cisplatin, 72 hrs): completely abolished
- effect on basal expression of NOX3 (NOX3 mRNA; lipoic acid alone): significantly reduced
- effect on the increase in NOX3 by cisplatin (NOX3 mRNA; lipoic acid pretreatment, cisplatin 72 hrs): attenuated

Compound: NCCc1ccc(S(=O)(=O)F)cc1 [AEBSF]
- reduction of TRPV1 immunofluorescence (TRPV1): 60%
- effect on cisplatin-induced increase in ROS generation (UB-OC1 cells [1]): abolished
- effect on cell viability over a 24 h period (UB-OC1 cells [2]): did not significantly affect cell viability

Compound: CC(=O)OCOC(=O)CN(CC(=O)OCOC(C)=O)c1ccccc1OCCOc1ccccc1N(CC(=O)OCOC(C)=O)CC(=O)OCOC(C)=O [BAPTA-AM]
- effect on cisplatin-induced increase in p53 (p53): down-regulated the expression of these pro-apoptotic genes to control levels
- effect on cisplatin-induced increase in Bax (Bax): substantial reduction
